{"source": "paper PMC2211469", "about": "“Viroporin potential of the lentivirus lytic peptide (LLP) domains of the HIV-1 gp41 protein” (Virology Journal, 2007)", "assay": "Tb3+/DPA microwell plate leakage assay", "settings": "positive control, complete dissolution of membranes", "protocol": "The Tb^3+/DPA assay, a high throughput leakage assay developed by Rausch and Wimley, 2001, was employed in order to determine each LLP peptide's ability to disturb lipid membrane integrity. […] To this end, Tb^3+ was entrapped in Large Unilamellar Vesicles composed of 10% POPG: 90% POPC diluted in a KPO4 buffer containing DPA. Only upon membrane disruption was terbium able to come into contact with DPA in the buffer generating a fluorescent complex. Various ratios of peptide:lipid were incubated together in a microwell plate and the resulting fluorescence emissions were monitored under UV irradiation. LLP -1, -2, and -1D peptides used in this study were not NBD labeled, but were N-terminally labeled with a tryptophan residue for quantification.\nTo prepare Tb^3+ LUVs, lipids were resuspended to 100 mM concentration in 50 mM Tb^3+, 100 mM sodium citrate, 10 mM TES pH 7.2. Gel Filtration on Sephadex G-200 was used to elute LUVs and remove unencapsulated Tb^3+ in a buffer of 10 mM TES and 325 mM NaCl. Final lipid concentrations were determined by phosphate analysis. […] Finally, samples were heated in a water bath with AmMo and ascorbic acid for 10–15 minutes and absorbance at 660 nm was measured. Concentrations were determined by comparison to a standard curve generated using known KPO4 concentrations. […]"}
{"substance": "Triton X-100", "values": [{"measurement": "leakage of vesicles", "result": 100, "unit": "%"}]}
